# Measurements published in US20100076015A1, “Aminopyridine Derivatives” (VANTIA LIMITED, priority 2008, published 2010).
# Target: T1, Human KLK1 (Homo sapiens, UniProt P06870)
# T1 construct: purchased Callbiochem (Calbiochem)
# Assay: Determination of the IC50 for KLK1 (fluorogenic substrate H-DVal-Leu-Arg-AFC)
# Assay type: biochemical
# Conditions: 37° C.
# In short: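 Test compound at various concentrations was incubated with human KLK1 and the fluorogenic substrate H-DVal-Leu-Arg-AFC at 37° C. Absorbance change at 410 nm gave the initial reaction rate, from which IC50 was obtained.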
# T1 sequence (P06870 25-262): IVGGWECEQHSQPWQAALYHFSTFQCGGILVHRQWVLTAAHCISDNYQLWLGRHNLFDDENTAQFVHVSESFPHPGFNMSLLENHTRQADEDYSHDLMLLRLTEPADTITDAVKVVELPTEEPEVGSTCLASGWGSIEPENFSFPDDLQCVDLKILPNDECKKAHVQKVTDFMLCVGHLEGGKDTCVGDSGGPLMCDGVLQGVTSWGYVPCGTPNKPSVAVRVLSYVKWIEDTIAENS
row,IC50 [nM],Structure (SMILES)
1,0.45,"CC(C)N1CCC[C@@H]1C(=O)N[C@@H](Cc1ccc(Cl)c(Cl)c1)C(=O)NCc1ccc(N)nc1 [Example 117, (R)-1-Isopropyl-pyrrolidine-2-carboxylic acid [(S)-1-[(6-amino-pyridin-3-ylmethyl)-carbamoyl]-2-(3,4-dichloro-phenyl)-ethyl]-amide]"
2,2.1,"CC(C)N1CCC[C@@H]1C(=O)N[C@@H](Cc1cccc2ccccc12)C(=O)NCc1ccc(N)nc1 [Example 118, (R)-1-Isopropyl-pyrrolidine-2-carboxylic acid {(S)-1-[(6-amino-pyridin-3-ylmethyl)-carbamoyl]-2-naphthalen-1-yl-ethyl}-amide]"
3,1.8,"CC(C)N1CCC[C@@H]1C(=O)N[C@@H](Cc1ccc(F)cc1)C(=O)NCc1ccc(N)nc1 [Example 119, (R)-1-Isopropyl-pyrrolidine-2-carboxylic acid [(S)-1-[(6-amino-pyridin-3-ylmethyl)-carbamoyl]-2-(4-fluoro-phenyl)-ethyl]-amide]"
4,1.6,"CC(C)N1CCC[C@@H]1C(=O)N[C@@H](Cc1cccc(Cl)c1)C(=O)NCc1ccc(N)nc1 [Example 120, (R)-1-Isopropyl-pyrrolidine-2-carboxylic acid [(S)-1-[(6-amino-pyridin-3-ylmethyl)-carbamoyl]-2-(3-chloro-phenyl)-ethyl]-amide]"
5,11,"Cc1ccccc1C[C@H](NC(=O)[C@H]1CCCN1C(C)C)C(=O)NCc1ccc(N)nc1 [Example 121, (R)-1-Isopropyl-pyrrolidine-2-carboxylic acid {(S)-1-[(6-amino-pyridin-3-ylmethyl)-carbamoyl]-2-o-tolyl-ethyl}-amide]"
6,1.8,"Cc1cccc(C[C@H](NC(=O)[C@H]2CCCN2C(C)C)C(=O)NCc2ccc(N)nc2)c1 [Example 122, (R)-1-Isopropyl-pyrrolidine-2-carboxylic acid {(S)-1-[(6-amino-pyridin-3-ylmethyl)-carbamoyl]-2-m-tolyl-ethyl}-amide]"
7,1.4,"Cc1ccc(C[C@H](NC(=O)[C@H]2CCCN2C(C)C)C(=O)NCc2ccc(N)nc2)cc1 [Example 123, (R)-1-Isopropyl-pyrrolidine-2-carboxylic acid {(S)-1-[(6-amino-pyridin-3-ylmethyl)-carbamoyl]-2-p-tolyl-ethyl}-amide]"
8,36.8,"COc1cccc(C[C@H](NC(=O)[C@H]2CCCN2C(C)C)C(=O)NCc2ccc(N)nc2)c1 [Example 124, (R)-1-Isopropyl-pyrrolidine-2-carboxylic acid [(S)-1-[(6-amino-pyridin-3-ylmethyl)-carbamoyl]-2-(3-methoxy-phenyl)-ethyl]-amide]"
9,8.8,"CC(C)N1CCC[C@@H]1C(=O)N[C@@H](Cc1ccccc1F)C(=O)NCc1ccc(N)nc1 [Example 125, (R)-1-Isopropyl-pyrrolidine-2-carboxylic acid [(S)-1-[(6-amino-pyridin-3-ylmethyl)-carbamoyl]-2-(2-fluoro-phenyl)-ethyl]-amide]"
10,9.3,"CC(C)N1CCC[C@@H]1C(=O)N[C@@H](Cc1ccccc1Cl)C(=O)NCc1ccc(N)nc1 [Example 126, (R)-1-Isopropyl-pyrrolidine-2-carboxylic acid [(S)-1-[(6-amino-pyridin-3-ylmethyl)-carbamoyl]-2-(2-chloro-phenyl)-ethyl]-amide]"
11,0.9,"CC(C)N1CCC[C@@H]1C(=O)N[C@@H](Cc1ccc(Cl)cc1Cl)C(=O)NCc1ccc(N)nc1 [Example 127, (R)-1-Isopropyl-pyrrolidine-2-carboxylic acid [(S)-1-[(6-amino-pyridin-3-ylmethyl)-carbamoyl]-2-(2,4-dichloro-phenyl)-ethyl]-amide]"
12,7.6,"CC(C)N1CCC[C@@H]1C(=O)N[C@@H](Cc1ccccc1C(F)(F)F)C(=O)NCc1ccc(N)nc1 [Example 128, (R)-1-Isopropyl-pyrrolidine-2-carboxylic acid [(S)-1-[(6-amino-pyridin-3-ylmethyl)-carbamoyl]-2-(2-trifluoromethyl-phenyl)-ethyl]-amide]"
13,215,"CC(C)N1CCC[C@@H]1C(=O)N[C@@H](Cc1ccncc1)C(=O)NCc1ccc(N)nc1 [Example 129, (R)-1-Isopropyl-pyrrolidine-2-carboxylic acid {(S)-1-[(6-amino-pyridin-3-ylmethyl)-carbamoyl]-2-pyridin-4-yl-ethyl}-amide]"
14,5,"CC(C)N1CCC[C@@H]1C(=O)N[C@@H](Cc1c[nH]c2ccccc12)C(=O)NCc1ccc(N)nc1 [Example 130, (R)-1-Isopropyl-pyrrolidine-2-carboxylic acid [(S)-1-[(6-amino-pyridin-3-ylmethyl)-carbamoyl]-2-(1H-indol-3-yl)-ethyl]-amide]"
15,6.4,"CCCN1CCC[C@@H]1C(=O)N[C@@H](Cc1ccc(F)c(F)c1)C(=O)NCc1ccc(N)nc1 [Example 132, (R)-1-Propyl-pyrrolidine-2-carboxylic acid [(S)-1-[(6-amino-pyridin-3-ylmethyl)-carbamoyl]-2-(3,4-difluoro-phenyl)-ethyl]-amide]"
16,16.5,"CC(C)CN1CCC[C@@H]1C(=O)N[C@@H](Cc1ccc(F)c(F)c1)C(=O)NCc1ccc(N)nc1 [Example 133, (R)-1-Isobutyl-pyrrolidine-2-carboxylic acid [(S)-1-[(6-amino-pyridin-3-ylmethyl)-carbamoyl]-2-(3,4-difluoro-phenyl)-ethyl]-amide]"
17,13.5,"COC(=O)CN1CCC[C@@H]1C(=O)N[C@@H](Cc1ccc(F)c(F)c1)C(=O)NCc1ccc(N)nc1 [Example 134, {(R)-2-[(S)-1-[(6-Amino-pyridin-3-ylmethyl)-carbamoyl]-2-(3,4-difluoro-phenyl)-ethylcarbamoyl]-pyrrolidin-1-yl}-acetic acid methyl ester]"
18,17.3,"Nc1ccc(CNC(=O)[C@H](Cc2ccc(F)c(F)c2)NC(=O)[C@H]2CCCN2CC(=O)O)cn1 [Example 135, {(R)-2-[(S)-1-[(6-Amino-pyridin-3-ylmethyl)-carbamoyl]-2-(3,4-difluoro-phenyl)-ethylcarbamoyl]-pyrrolidin-1-yl}-acetic acid]"
19,8.6,"CCN1CCC[C@@H]1C(=O)N[C@@H](Cc1ccc(F)cc1)C(=O)NCc1ccc(N)nc1 [Example 136, (R)-1-Ethyl-pyrrolidine-2-carboxylic acid [(S)-1-[(6-amino-pyridin-3-ylmethyl)-carbamoyl]-2-(4-fluoro-phenyl)-ethyl]-amide]"
20,288,"CCN1CCC[C@@H]1C(=O)N[C@@H](Cc1cccc(C)c1)C(=O)NCc1ccc(N)nc1 [Example 137, (R)-1-Ethyl-pyrrolidine-2-carboxylic acid {(S)-1-[(6-amino-pyridin-3-ylmethyl)-carbamoyl]-2-m-tolyl-ethyl}-amide]"
21,39.8,"CCN1CCC[C@@H]1C(=O)N[C@@H](Cc1cccc(Cl)c1)C(=O)NCc1ccc(N)nc1 [Example 138, (R)-1-Ethyl-pyrrolidine-2-carboxylic acid [(S)-1-[(6-amino-pyridin-3-ylmethyl)-carbamoyl]-2-(3-chloro-phenyl)-ethyl]-amide]"
22,3.7,"CCCN1CCC[C@@H]1C(=O)N[C@@H](Cc1ccc(F)cc1)C(=O)NCc1ccc(N)nc1 [Example 139, (R)-1-Propyl-pyrrolidine-2-carboxylic acid [(S)-1-[(6-amino-pyridin-3-ylmethyl)-carbamoyl]-2-(4-fluoro-phenyl)-ethyl]-amide]"
23,4.3,"Nc1ccc(CNC(=O)[C@H](Cc2ccc(F)c(F)c2)NC(=O)[C@H]2CCCN2Cc2ccccc2)cn1 [Example 140, (R)-1-Benzyl-pyrrolidine-2-carboxylic acid [(S)-1-[(6-amino-pyridin-3-ylmethyl)-carbamoyl]-2-(3,4-difluoro-phenyl)-ethyl]-amide]"
24,13.7,"Nc1ccc(CNC(=O)[C@H](Cc2ccc(Cl)c(Cl)c2)NC(=O)[C@H]2CCCN2Cc2ccccc2)cn1 [Example 141, (R)-1-Benzyl-pyrrolidine-2-carboxylic acid [(S)-1-[(6-amino-pyridin-3-ylmethyl)-carbamoyl]-2-(3,4-dichloro-phenyl)-ethyl]-amide]"
25,15,"Nc1ccc(CNC(=O)[C@H](Cc2ccc(F)c(F)c2)NC(=O)[C@H]2CCCN2Cc2ccc(Cl)cc2)cn1 [Example 142, (R)-1-(4-Chloro-benzyl)-pyrrolidine-2-carboxylic acid [(S)-1-[(6-amino-pyridin-3-ylmethyl)-carbamoyl]-2-(3,4-difluoro-phenyl)-ethyl]-amide]"
26,21,"Nc1ccc(CNC(=O)[C@H](Cc2ccc(F)c(F)c2)NC(=O)[C@H]2CCCN2Cc2cccc(Cl)c2)cn1 [Example 143, (R)-1-(3-Chloro-benzyl)-pyrrolidine-2-carboxylic acid [(S)-1-[(6-amino-pyridin-3-ylmethyl)-carbamoyl]-2-(3,4-difluoro-phenyl)-ethyl]-amide]"
27,20.9,"CN1CCCC[C@@H]1C(=O)N[C@@H](Cc1ccc(F)c(F)c1)C(=O)NCc1ccc(N)nc1 [Example 144, (R)-1-Methyl-piperidine-2-carboxylic acid [(S)-1-[(6-amino-pyridin-3-ylmethyl)-carbamoyl]-2-(3,4-difluoro-phenyl)-ethyl]-amide]"
28,102,"CC(C)N1CCCC[C@@H]1C(=O)N[C@@H](Cc1ccc(F)c(F)c1)C(=O)NCc1ccc(N)nc1 [Example 146, (R)-1-Isopropyl-piperidine-2-carboxylic acid [(S)-1-[(6-amino-pyridin-3-ylmethyl)-carbamoyl]-2-(3,4-difluoro-phenyl)-ethyl]-amide]"
29,49.6,"CC(C)N1CCCC[C@@H]1C(=O)N[C@@H](Cc1ccc(F)cc1)C(=O)NCc1ccc(N)nc1 [Example 147, (R)-1-Isopropyl-piperidine-2-carboxylic acid [(S)-1-[(6-amino-pyridin-3-ylmethyl)-carbamoyl]-2-(4-fluoro-phenyl)-ethyl]-amide]"
30,55.7,"CN1C[C@H](O)C[C@@H]1C(=O)N[C@@H](Cc1ccc(F)c(F)c1)C(=O)NCc1ccc(N)nc1 [Example 148, (2R,4R)-4-Hydroxy-1-methyl-pyrrolidine-2-carboxylic acid [(S)-1-[(6-amino-pyridin-3-ylmethyl)-carbamoyl]-2-(3,4-difluoro-phenyl)-ethyl]-amide]"
